Results: patent US20210180095A1 (SHELL OIL COMPANY, priority 2017, published 2021)

Tests used:
[1] = molecular target: T1, P. thermopropionicum HmfF (Pelotomaculum thermopropionicum, UniProt A5D4Z9); conditions: substrate specificity
Description: Subsequently, HmfF was purified and assayed under anaerobic conditions. […] All subsequent assays were performed at 50° C.

[2] = test system: P. thermopropionicum HmfF H297F variant; assay: Reconstituted holo-PtHmfF decarboxylation assay (FIG. 7), H297F variant; type: biochemical, Pelotomaculum thermopropionicum; conditions: 1 mM substrate
Description: (§1) Mutagenesis primers were designed using the QuikChange® Primer Design Program (http://www.genomics.agilent.com/primerDesignProgram.jsp). PCR was performed using Phusion polymerase (NEB). Template was removed by DpnI (NEB) digest and the PCR product transformed into E. coli NEB5-alpha. Once the presence of the desired mutation was confirmed by DNA sequencing, the plasmid was transformed into E. coli BL21(DE3). The three variants transformed into E. coli BL21(DE3) includes one with a mutation of H297N, a second with H297F, and a third of R305Q.
(§2) Protein was expressed in BL21(DE3) grown at 37° C./180 rpm in LB broth supplemented with 50 μg/ml ampicillin At mid-log phase cells were induced with 0.25 mM IPTG and grown overnight at 15° C./180 rpm and then harvested by centrifugation (4° C., 7000 g for 10 minutes). Cell pellets were resuspended in buffer A (200 mM KCl, 1 mM MnCl2, 50 mM Tris pH 7.5) supplemented with DNase, RNase, lysozyme (Sigma) and Complete EDTA-free protease inhibitor cocktail (Roche). Cells were lysed using a French press at 1500 psi and the lysate incubated at 50° C. for 30 minutes to precipitate host proteins. The lysate was clarified by centrifugation at 125,000 g for 90 minutes. […]

[3] = test system: P. thermopropionicum HmfF R305Q variant; assay: Reconstituted holo-PtHmfF decarboxylation assay (FIG. 7), R305Q variant; type: biochemical, Pelotomaculum thermopropionicum; conditions: 1 mM substrate
Description: as §1, §2

[4] = test system: P. thermopropionicum HmfF wild-type (WT); assay: Reconstituted holo-PtHmfF decarboxylation assay (FIG. 7), wild-type; type: biochemical, Pelotomaculum thermopropionicum; conditions: 1 mM substrate; for observed kcat (decarboxylation activity): pH6, 50° C., anaerobic
Description: Reconstitution and Assays were performed anaerobically within a 100% N2-atmosphere glove box (Belle Technology, UK).
Holo-PtHmfF (e.g., an enzyme with its cofactors) was obtained by reconstituting single expressed HmfF with reduced prFMN under anaerobic conditions as described previously for the UbiD from E. coli in Marshall, S. A., Fisher, K., Ni Cheallaigh, A., White, M. D., Payne, K. A., Parker, D. A., Rigby, S. E., and Leys, D. (2017) Oxidative Maturation and Structural Characterization of Prenylated FMN Binding by UbiD, a Decarboxylase Involved in Bacterial Ubiquinone Biosynthesis. The Journal of biological chemistry 292, 4623-4637. In general, a reaction consisting of 1 mM FMN, 2 mM DMAP (Sigma), 50 μM Fre reductase and 50 μM UbiX in buffer A was started by the addition of 5 mM NADH. Following incubation, the reaction mixture was filtered through 10 k MWCO centrifugal concentrator to remove UbiX and Fre proteins. The filtrate containing the prFMN product was used to reconstitute anaerobic apo-HmfF (e.g., an enzyme without its cofactors) in a 2:1 molar ratio, with excess cofactor being removed using a PD25 desalting column (GE Healthcare). Use of holo-PtHmfF ensures the activity observed in the enzymatic activity assay below is minimally impacted by the presence or absence of cofactors.
Assays were performed by UV-vis spectroscopy using a Cary 50 Bio spectrophotometer (Varian).

G. kaustophilus HmfF = assay: HmfF carboxylation reactions assayed by HPLC; type: biochemical, Geobacillus kaustophilus; conditions: 50 mM furoic acid, 3 M ammonium bicarbonate, 50° C. overnight
Description: (§3) […] The sample was centrifuged at 16100 g to remove precipitate and […] added to 980 μl 50% v/v H2O/acetonitrile. Sample analysis was performed using an Agilent 1260 Infinity Series HPLC equipped with a UV detector. The stationary phase was a Kinetex […] C18 100A column, 250×4.6 mm The mobile phase was acetonitrile/water (50/50) with 0.1% TFA at a flow rate of 1 ml/min, and unless otherwise stated detection was performed at a wavelength of 265 nm.

[5] = molecular target: T1, P. thermopropionicum HmfF; assay: HmfF carboxylation reactions assayed by HPLC; type: biochemical; conditions: 50 mM furoic acid, 3 M ammonium bicarbonate, 50° C. overnight
Description: as §3

[6] = Effect of pH, temperature and oxygen on HmfF decarboxylation activity (UV-vis)

## O=C(O)c1ccoc1C(=O)O [2,3-furandicarboxylic acid]
[1]
  decarboxylation by purified P. thermopropionicum HmfF: no decarboxylation detected

## O=C(O)c1ccc(C(=O)O)s1 [2,5-thiophenedicarboxylic acid]
[1]
  decarboxylation by purified P. thermopropionicum HmfF: no decarboxylation detected

## O=C(O)c1cccc(C(=O)O)n1 [2,6-pyridinedicarboxylic acid]
[1]
  decarboxylation by purified P. thermopropionicum HmfF: no decarboxylation detected

## O=C(O)c1ccc(CO)o1 [5-hydroxymethyl-2-furoic acid]
[1]
  decarboxylation by purified P. thermopropionicum HmfF: no decarboxylation detected

## O=C(O)c1ccc([N+](=O)[O-])o1 [5-nitro-2-furoic acid]
[1]
  decarboxylation by purified P. thermopropionicum HmfF: no decarboxylation detected

## O=C(O)c1ccc(C(=O)O)o1 [FDCA, 2,5-furandicarboxylic acid]
[2]
  decarboxylation activity: did not exhibit any measurable decarboxylation activity
[1]
  decarboxylation by purified P. thermopropionicum HmfF: capable of decarboxylating
[3]
  decarboxylation activity: did not exhibit any measurable decarboxylation activity
[4]
  observed kcat (decarboxylation activity): greater than 4 kcat/s

## O=C(O)c1ccc(C(=O)O)[nH]1 [PDCA, 2,5-pyrrol-dicarboxylic acid]
[2]
  decarboxylation activity: did not exhibit any measurable decarboxylation activity
[3]
  decarboxylation activity: did not exhibit any measurable decarboxylation activity
[4]
  decarboxylation activity relative to the activity for FDCA: about 2.5%
  observed kcat (decarboxylation activity): less than 0.1 kcat/s

## O=C(O)c1ccco1 [furoic acid]
G. kaustophilus HmfF
  carboxylation of furoic acid to FDCA (HPLC peak): co-migrates with an FDCA standard
[5]
  carboxylation of furoic acid to FDCA (HPLC peak): co-migrates with an FDCA standard
[1]
  decarboxylation by purified P. thermopropionicum HmfF: could not further decarboxylate

## O=C(O)c1cccc(C(=O)O)c1 [isophthalic acid]
[1]
  decarboxylation by purified P. thermopropionicum HmfF: no decarboxylation detected

## O=C(O)/C=C/C=C/C(=O)O [muconic acid]
[1]
  decarboxylation by purified P. thermopropionicum HmfF: no decarboxylation detected

## O=C(O)c1ccc(C(=O)O)cc1 [terephthalic acid]
[1]
  decarboxylation by purified P. thermopropionicum HmfF: no decarboxylation detected

B1: P. thermopropionicum HmfF: HmfF enzyme (2,5-furandicarboxylic acid decarboxylase) of SEQ ID NO:1 from the thermophilic bacterium Pelotomaculum thermopropionicum (protein, listed as Pelotomaculum thermopropionicum)
chain: MSHSLREWLAFLEGKGKLKRVRKEVDPVFEIAALGKQADGICSLLFERVKGYAVPVVTGLAGDRELFAAAMSVPVEGMLEKLAAAVENPVPCRLVSPDGAPVKECIIRENIDLLKMLPIPTHHAGDAGPYITAAILIARDPDSGVRNVSIHRLQVTGPDRLGILILPRHLWHFFGKAERAGRPLEIALAIGVHPAVLLASQATTRLGVDELEIASALLPQPLELVKCETVDVEVPAGAEIVIEGKILPGVREVEGPFGEYPRYYGPAAPRPVVEVTAVTHRRQPVYHTIIPASREHLLLGGIAREAVLLQTVRQAVPTVKNVHLTPGGSCRYHAVISIEKKHEGEAKNAIFAAFTSSSEVKHVVVVDHEINIFDPEEVEWAVATRCQAGRDVFIVKDAMGNRLDPSSRDGVSDKMGIDATIPLNLPGERFERISIPGLDKIKLADYLE
[6]; Arrhenius plot of the 25° C.-50° C. data points
  activation energy: 19.3 kcal/mol
[6]; FDCA decarboxylation, anaerobic
  temperature maximum of enzyme activity: ~60 °C
